Measured values from patent US6555330B1, “Oncogene-induced apoptosis in drug-resistant cells” (Cold Spring Harbor Laboratory, priority 1996, dated 2003).

Columns and labels:
[1] = system: Interleukin-1β-converting enzyme-like proteases (ILPs); assay: Fluorescent substrate (DEVD-AFC) assay for ILP activity in 293 cell extracts; type: biochemical, human; conditions: for rate of ILP activation (dose response, free AFC generated per minute per milligram of extract): dialyzed S-100 extracts of 293 cells, various concentrations; for rate of ILP activation (dose response, free AFC generated per minute per milligram of extract) / free AFC (cleaved DEVD-AFC) generated in one minute by one milligram of extract: 60 minutes at 37° C.; for free AFC (cleaved DEVD-AFC) generated in one minute by one milligram of extract: 293 cell extracts, vanadate 5 mM, Granzyme B 2 U/ul added before shift
Experimental: Interleukin-1β-converting enzyme-like proteases activity was measured by monitoring the cleavage of DEVD-AFC. This fluorogenic substrate DEVD-AFC consists of the peptide sequence (DEVD) which resembles the cleavage site in proteins that are degraded by ILPs, conjugated to amino-trifluoromethyl coumarin (AFC). When the peptide and the AFC molecule are attached the substrate is not fluorescent, when it is free it is fluorescent. […] The activated ILPs cleave the bond between the peptide and the AFC, resulting in increased fluorescence, which is detected using a fluorimeter. The assay is performed in a microtiter plate using the format essentially as described by Thomberry, N. A., Methods in Enzymology, 244:615-631 (1994). […] This period of time ranges from 0 to 90 minutes. During the preincubation period of a modulation assay, compounds that are to be assessed for their ability to activate or inhibit apoptosis are also introduced into the sample. Depending upon the purpose of the experiment the test compound may be present for the entire period of the preincubation or only a portion of the time. In order to measure the level of ILP activation 1 μl of extract is added to 200 μl of assay buffer (50 mM PIPES/KOH pH 7.0, 0.1 mM EDTA, 1 mM DTT, 10% glycerol) containing 20 μM DEVD-AFC (Enzyme Systems products). The release of free AFC was measured with a fluorescence plate reader, Cytofluor (Perspective Biosystems). The amount of fluorescence resulting from samples assayed in the presence and absence of potential modulatory compounds is compared to appropriate control samples and expressed as the number of free AFC molecules generated in one minutes by one milligram of cell extract.
Identifying agents that modulate the apoptotic machinery of 293 cellular extracts Dialyzed S-100 extracts of 293 cells were incubated for 60 minutes at 37° C. with various concentrations of either ATP, EDTA or sodium ortho-vanadate. ILP activity was then measured using the fluorogenic substrate assay. (FIGS. 8A-C).
To determine whether bcl-2 blocks ILP activation or inhibits the enzymatic activity of ILPs, bcl-2 was added to extracts either before or after incubation at 37° C. and monitored ILP activity by a quantitative enzymatic assay. Bc1-2 (40 μg/ml) was added to 293 extract either before incubation at 37° C. or after 15 minutes of the incubation (additions indicated by arrows). ILP activity against DEVD-AFC was measured as described above (FIG. 3).
As described below, the system described above can be used to screen for compounds that effect ILP activation. […] Vanadate (0.1, l and 5 mM) was added to extracts from 293 cells and the extracts then shifted to 37° C. and incubated for 30 minutes. The rate of DEVD-AFC proteolysis was then determined.
Vanadate (5 mM) was added to extracts either before 60 minutes incubation at 37° C. or after 60 minutes incubation. The extracts were then incubated for a further 60 minutes and the rate of DEVD-AFC proteolysis determined.
Extracts from 293 cells were incubated for 60 minutes at 37° C. Where indicated vanadate (5 mM), Granzyme B (2 U/ul ) or DEVD-CMK (10 μM) was added before the extract was shifted to 37° C. After 60 minutes the rate of DEVD-AFC proteolysis was determined. Data is representative of two experiments. In parallel, nuclei (1×10^7/ml) were incubated at 37° C. for 60 minutes with extracts treated with vanadate (5 mM), Granzyme B (2 U/ul) or DEVD-CMK (10 μM) where indicated. Nuclei were also incubated at 4° C. with extract or at 37° C. with Granzyme B but no extract.
Extracts were incubated at 37° C. and vanadate was added at the indicated times (arrows) to a final concentration of 5 mM. The rate of DEVD-AFC proteolysis in untreated extract (closed symbols) or vanadate treated extracts (open symbols) was measured at the indicated times. Data is representative of three experiments.

[2] = system: ICE-like proteases (ILPs) in Jurkat cells; assay: Affinity labeling of active ILPs in Jurkat cells; type: cell-based; conditions: Jurkat cells treated with etoposide
Experimental: (§1) Cells (2×10^6) were centrifuged (200 g, 5 minutes) and resuspended in […] MDB containing 10 μM biotinylated YVAD.AMK (plus protease inhibitors and […] cytochalasin B) and lysed by freeze/thawing for three cycles. The lysate was centrifuged (16,000 g, 20 minutes, 4° C.) and the supernatant incubated at 37° C. for 4 minutes to label active ILPs. The protein concentration was determined (Bradford assay), an equal volume of 2×SDS sample buffer added and the sample boiled for 5 minutes.
(§2) Extracts were mixed with an equal volume of MDB containing 20 μM biotinylated YVAD.AMK and incubated at 37° C. for 4 minutes to label active ILPs. Labeling was stopped by adding an equal volume of 2×SDS sample buffer and samples were subjected to 15% SDS-PAGE. Proteins were transferred to a PVDF Immobilon P^SQ membrane (Millipore Corp.) and the membrane washed (methanol, 5 minutes) and dried (80° C., 15 minutes). The blot was incubated with avidin (1 μg/ml) followed by Biotin-horse radish peroxidase (0.05 μg/ml), and labeled proteins detected by ECL (Amersham Inc.).
(§3) To avoid relying solely on the morphological manifestations of apoptosis, whether activation of ILPs, a biochemical hallmark of apoptosis, occurred in 293 cells treated with etoposide was also determined. Jurkat cells (2×10^6) or 293 cells (2×10^6) were incubated with biotin-YVAD-AMK, an affinity probe that labels active ILPs.

293 cells = assay: Apoptotic nuclear morphology (DAPI) in intact 293 cells; type: cell-based, human; conditions: etoposide 50 μM
Experimental: (§4) Intact cells or isolated nuclei were fixed with 4% paraformaldehyde, stained with DAPI (1μg/ml) and examined by fluorescence microscopy. The percentage of cells showing apoptotic nuclear morphology was determined. Images were acquired using a Photometrics PXL CCD camera (Photometrics Ltd) controlled by Oncor Image software (Oncor Inc.). Figures were prepared using Adobe Photoshop software. Jurkat cells (1×10^5/ml) (FIG. 1A) or 293 cells (1×10^5/ml) (FIG. 1B) were incubated with or without etoposide (50 μM). Cells were fixed at the indicated times and stained with DAPI. The percentage of cells with apoptotic nuclear morphology was determined. Samples were also taken to assess ILP activation.

Jurkat cells = assay: Apoptotic nuclear morphology (DAPI) in intact Jurkat cells; type: cell-based; conditions: etoposide 50 μM
Experimental: as §4

[3] = system: ICE-like proteases (ILPs) in 293 cells; assay: Affinity labeling of active ILPs in 293 cells; type: cell-based, human; conditions: 293 cells treated with etoposide
Experimental: as §1, §2, §3

[4] = system: apoptotic machinery of 293 cell extracts; assay: In vitro apoptosis of isolated HeLa nuclei in 293 cell extracts; design: species or system human
Experimental: Extracts were prepared essentially as described (Lazebnik, Y. A., et al., J. Cell. Biol., 123:7-22 (1993)). 293 cells (5-7×10^5 cells/ml)were washed and gently resuspended in 10× pellet volumes of extract preparation buffer (50 mM PIPES pH 7.0, 50 mM KCl, 5 mM EGTA, 2mM MgCl2, 1 mM DTT) plus 0.1 mM PMSF, 10 μg/ml cytochalasin B and 2 μg/ml each of chymostatin, pepstatin, leupeptin and antipain. Cells were immediately centrifuged (200 g, 5 minutes) and lysed by three cycles of freeze/thawing with liquid nitrogen. The lysate was centrifuged at 100,000 g for two hours, giving a cell extract. […]
Intact cells or isolated nuclei were fixed with 4% paraformaldehyde, stained with DAPI (1μg/ml) and examined by fluorescence microscopy. The percentage of cells showing apoptotic nuclear morphology was determined. […]
293 cell extracts (10 μl) were incubated with isolated HeLa nuclei (1×10^5) for 60 minutes at 37° C. either alone or with biotin-YVAD-AMK (100 μM), an inhibitor of ILPs. After incubation aliquots of the reaction were fixed, stained with DAPI and examined by fluorescence microscopy.
Extracts from E1A/E1B transformed MEFs or 293 cells (10 μl) were incubated with bcl-2 (40 μg/ml) for 10 minutes at 37° C. prior to further incubation with HeLa nuclei (1×10^5) for 60 minutes. Nuclei were fixed, stained with DAPI and examined by fluorescence microscopy. […]

[5] = system: ICE-like proteases (ILPs), cpp32; assay: Affinity labeling of ILPs and cpp32 immunoblotting in 293 cell extracts; type: biochemical, human; conditions: Granzyme B added to 293 extracts treated with vanadate
Experimental: as §2
Affinity blots were re-probed to detect cpp32. These membranes were soaked in methanol for 5 minutes to inactivate horseradish peroxidase, dried and re-probed with a monoclonal antibody to cpp32 (Transduction Laboratories) followed by incubation with a secondary antibody conjugated to horseradish peroxidase. The antigen-antibody complex was detected by ECL (Amersham Inc).
Prevention of apoptosis was achieved only if extracts were pre-incubated with bcl-2 before addition of nuclei. […] The same extracts were incubated alone, with buffer or with bcl-2 (40 μg/ml) for 70 minutes at 37° C. and active ILPs labeled with biotin YVAD.AMK (10 μM). Samples were subjected to 15% SDS-PAGE, transferred to a PVDF membrane and labeled ILPs visualized by ECL.

Molecule: Nc1ncnc2c1ncn2[C@@H]1O[C@H](COP(=O)(O)OP(=O)(O)OP(=O)(O)O)[C@@H](O)[C@H]1O [ATP]
- rate of ILP activation (dose response, free AFC generated per minute per milligram of extract) [1]: increases the rate of ILP activation

Molecule: O=C(O)CN(CCN(CC(=O)O)CC(=O)O)CC(=O)O [EDTA]
- rate of ILP activation (dose response, free AFC generated per minute per milligram of extract) [1]: decreases the rate of ILP activation

Molecule: COc1cc([C@@H]2c3cc4c(cc3[C@@H](O[C@@H]3O[C@@H]5CO[C@@H](C)O[C@H]5[C@H](O)[C@H]3O)[C@H]3COC(=O)[C@H]23)OCO4)cc(OC)c1O [etoposide]
- active ILPs detected by biotin-YVAD-AMK affinity labeling [2]: multiple active ILPs were detected
- induction of apoptotic morphology (293 cells): no morphological signs of apoptosis
- induction of apoptotic morphology (Jurkat cells): sufficient to kill Jurkat cells
- active ILPs detected by biotin-YVAD-AMK affinity labeling [3]: No active ILPs were detected

Molecule: [Na+].[Na+].[Na+].[O]=[V]([O-])([O-])[O-] [vanadate, sodium ortho vanadate]
- free AFC (cleaved DEVD-AFC) generated in one minute by one milligram of extract [1]: 1.4 pmol/min
- rate of ILP activation (dose response, free AFC generated per minute per milligram of extract) [1]: decreases the rate of ILP activation
- ILP activity (rate of DEVD-AFC proteolysis) ([1]; vanadate 5 mM added after 60 minutes incubation at 37° C. (ILPs already active), further 60 minutes): had no effect on ILP activity
- process of ILP activation (rate of DEVD-AFC proteolysis) ([1]; vanadate 5 mM added at different times after shift of 293 extract to 37° C.): arrested the process of ILP activation irrespective of when it was added
- inhibition of ILP activation ([1]; vanadate 5 mM added before shift to 37° C., all extracts): complete inhibition
- rate of DEVD-AFC proteolysis ([1]; vanadate 0.1, 1 and 5 mM added before shifting 293 extract to 37° C., 30 minutes): inhibited cleavage of DEVD-AFC

Molecule: Granzyme B: a serine protease which activates ILPs directly
- effect on vanadate inhibition of in vitro apoptosis (nuclei) ([4]; Granzyme B 2 U/ul added to 293 extracts treated with vanadate 5 mM, nuclei 60 minutes at 37° C.): completely overcame vanadate inhibition
- free AFC (cleaved DEVD-AFC) generated in one minute by one milligram of extract [1]: 0 pmol/min
- effect on vanadate inhibition of ILP activity ([1]; Granzyme B 2 U/ul added to 293 extracts treated with vanadate 5 mM): completely overcame vanadate inhibition
- ILP activation and cpp32 processing (affinity labeling, immuno-blotting) [5]: resulted in ILP activation and cpp32 processing

Molecule: biotin-YVAD-acyloxymethylketone [biotin YVAD-amk]
- nuclear morphological changes of apoptosis in HeLa nuclei ([4]; 293 cell extract, inhibitor 100 μM, 60 minutes at 37° C.): prevented the nuclear morphological changes of apoptosis
